pKi: −log10 of the molar value.

The values below come from patent publication US8921376B2, “Pyrrolopyridines useful as inhibitors of protein kinase” (Vertex Pharmaceuticals Incorporated, priority 2005, dated 2014).

Holding throughout (assay type): biochemical
The target in experiment [1] is T1, JAK3 (Homo sapiens, UniProt P52333).
T1 sequence (P52333 1-1124): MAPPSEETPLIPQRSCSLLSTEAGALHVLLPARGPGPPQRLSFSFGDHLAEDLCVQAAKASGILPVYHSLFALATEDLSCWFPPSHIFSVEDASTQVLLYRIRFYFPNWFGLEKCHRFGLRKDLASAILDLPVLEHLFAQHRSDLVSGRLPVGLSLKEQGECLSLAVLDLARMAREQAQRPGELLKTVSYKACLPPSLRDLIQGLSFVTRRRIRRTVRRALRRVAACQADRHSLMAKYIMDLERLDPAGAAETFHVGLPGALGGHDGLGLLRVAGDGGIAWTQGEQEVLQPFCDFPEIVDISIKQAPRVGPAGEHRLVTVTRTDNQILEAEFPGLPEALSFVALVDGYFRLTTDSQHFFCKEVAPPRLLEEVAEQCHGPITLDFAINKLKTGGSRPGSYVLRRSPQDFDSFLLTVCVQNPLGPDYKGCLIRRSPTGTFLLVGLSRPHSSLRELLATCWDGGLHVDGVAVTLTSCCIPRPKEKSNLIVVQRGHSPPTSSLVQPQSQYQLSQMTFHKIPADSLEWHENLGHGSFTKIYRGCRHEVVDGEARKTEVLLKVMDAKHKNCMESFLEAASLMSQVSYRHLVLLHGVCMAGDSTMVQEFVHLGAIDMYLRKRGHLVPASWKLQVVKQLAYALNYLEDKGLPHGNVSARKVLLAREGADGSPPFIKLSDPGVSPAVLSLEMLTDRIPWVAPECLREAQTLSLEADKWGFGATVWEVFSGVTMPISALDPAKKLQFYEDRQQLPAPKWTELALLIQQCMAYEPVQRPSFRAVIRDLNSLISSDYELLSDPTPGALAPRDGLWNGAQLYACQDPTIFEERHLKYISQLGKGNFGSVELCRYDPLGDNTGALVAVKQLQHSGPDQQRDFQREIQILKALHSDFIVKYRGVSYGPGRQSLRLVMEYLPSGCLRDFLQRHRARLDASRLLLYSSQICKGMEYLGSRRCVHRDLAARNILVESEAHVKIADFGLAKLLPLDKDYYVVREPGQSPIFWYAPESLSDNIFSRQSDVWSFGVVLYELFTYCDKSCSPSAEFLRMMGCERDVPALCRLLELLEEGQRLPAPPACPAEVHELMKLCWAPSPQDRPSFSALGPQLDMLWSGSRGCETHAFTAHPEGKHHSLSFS
The experiment can be described thus: JAK3 inhibition assay (33P incorporation into poly(Glu)4Tyr). The gist of the method:
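After TCA quench and filter harvest, scintillation counting of 33P measured phosphorylation of poly(Glu)4Tyr (1 μM) by 1 nM JAK3. The 20-min, 25° C. reaction contained 5 μM ATP (200 μCi/μmole) in pH 7.4 HEPES buffer with 10 mM MgCl2.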

The target in experiment [2] is ROCK I (Homo sapiens, UniProt Q13464). Description: ROCK-I inhibition assay (radioactive enzyme assay, MBP substrate). The method in brief: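 Human ROCK at 5 nM phosphorylated 27 μM myelin basic protein with 13 μM [γ-33P]ATP (final) in HEPES pH 7.5, MgCl2, NaCl, DTT and 1.5% DMSO. Reactions ran 2 h at room temperature before TCA quench and filter-plate scintillation counting. After background subtraction, data were fit to give Ki(app).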

The target of experiment [3] is JAK2 (Homo sapiens, UniProt O60674). Description: JAK2 inhibition assay (as Example 3 with JAK-2 enzyme). The gist of the method:
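In HEPES pH 7.4 buffer with 10 mM MgCl2, 1 mM DTT, 25 mM NaCl and 0.01% BSA, JAK2 enzyme phosphorylated poly(Glu)4Tyr (final 15 μM) using 33P-ATP (final 12 μM) for 20 min at room temperature (25 °C). Reactions stopped with TCA; incorporated 33P measured by scintillation after filtration.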

The mark [4] stands for this setting: enzyme inhibition, Ki(app), Table 5.
[5] abbreviates: Table 6, enzyme inhibition data (Ki).

Sequence of JAK2 (O60674 whole entry): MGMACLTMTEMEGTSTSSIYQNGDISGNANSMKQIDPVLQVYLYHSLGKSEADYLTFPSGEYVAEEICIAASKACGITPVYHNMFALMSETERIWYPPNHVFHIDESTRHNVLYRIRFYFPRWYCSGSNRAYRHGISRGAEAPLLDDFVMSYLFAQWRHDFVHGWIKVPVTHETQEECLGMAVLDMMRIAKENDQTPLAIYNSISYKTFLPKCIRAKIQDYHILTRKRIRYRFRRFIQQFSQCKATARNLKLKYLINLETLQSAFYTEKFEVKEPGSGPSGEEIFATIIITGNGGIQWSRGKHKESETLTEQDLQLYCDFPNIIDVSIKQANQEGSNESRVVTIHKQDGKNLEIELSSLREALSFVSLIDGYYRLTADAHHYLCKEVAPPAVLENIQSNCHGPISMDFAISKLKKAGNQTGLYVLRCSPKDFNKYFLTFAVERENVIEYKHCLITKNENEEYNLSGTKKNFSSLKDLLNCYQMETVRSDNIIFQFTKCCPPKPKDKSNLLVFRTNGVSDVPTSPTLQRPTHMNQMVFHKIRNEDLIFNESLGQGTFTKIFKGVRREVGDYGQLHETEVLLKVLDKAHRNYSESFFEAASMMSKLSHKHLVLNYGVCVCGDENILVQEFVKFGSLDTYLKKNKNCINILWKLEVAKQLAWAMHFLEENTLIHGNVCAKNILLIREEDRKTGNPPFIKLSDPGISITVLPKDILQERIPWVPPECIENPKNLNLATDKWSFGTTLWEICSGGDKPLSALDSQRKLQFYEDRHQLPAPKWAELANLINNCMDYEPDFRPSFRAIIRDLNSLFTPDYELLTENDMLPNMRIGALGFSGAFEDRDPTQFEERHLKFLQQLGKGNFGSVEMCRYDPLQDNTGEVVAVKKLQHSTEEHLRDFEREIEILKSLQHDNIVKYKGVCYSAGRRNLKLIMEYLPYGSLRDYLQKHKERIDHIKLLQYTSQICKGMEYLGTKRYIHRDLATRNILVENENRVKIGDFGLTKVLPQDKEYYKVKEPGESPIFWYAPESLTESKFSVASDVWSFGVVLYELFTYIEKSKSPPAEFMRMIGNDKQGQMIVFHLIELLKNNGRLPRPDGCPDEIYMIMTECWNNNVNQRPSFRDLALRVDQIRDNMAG
Sequence of ROCK I (Q13464 whole entry): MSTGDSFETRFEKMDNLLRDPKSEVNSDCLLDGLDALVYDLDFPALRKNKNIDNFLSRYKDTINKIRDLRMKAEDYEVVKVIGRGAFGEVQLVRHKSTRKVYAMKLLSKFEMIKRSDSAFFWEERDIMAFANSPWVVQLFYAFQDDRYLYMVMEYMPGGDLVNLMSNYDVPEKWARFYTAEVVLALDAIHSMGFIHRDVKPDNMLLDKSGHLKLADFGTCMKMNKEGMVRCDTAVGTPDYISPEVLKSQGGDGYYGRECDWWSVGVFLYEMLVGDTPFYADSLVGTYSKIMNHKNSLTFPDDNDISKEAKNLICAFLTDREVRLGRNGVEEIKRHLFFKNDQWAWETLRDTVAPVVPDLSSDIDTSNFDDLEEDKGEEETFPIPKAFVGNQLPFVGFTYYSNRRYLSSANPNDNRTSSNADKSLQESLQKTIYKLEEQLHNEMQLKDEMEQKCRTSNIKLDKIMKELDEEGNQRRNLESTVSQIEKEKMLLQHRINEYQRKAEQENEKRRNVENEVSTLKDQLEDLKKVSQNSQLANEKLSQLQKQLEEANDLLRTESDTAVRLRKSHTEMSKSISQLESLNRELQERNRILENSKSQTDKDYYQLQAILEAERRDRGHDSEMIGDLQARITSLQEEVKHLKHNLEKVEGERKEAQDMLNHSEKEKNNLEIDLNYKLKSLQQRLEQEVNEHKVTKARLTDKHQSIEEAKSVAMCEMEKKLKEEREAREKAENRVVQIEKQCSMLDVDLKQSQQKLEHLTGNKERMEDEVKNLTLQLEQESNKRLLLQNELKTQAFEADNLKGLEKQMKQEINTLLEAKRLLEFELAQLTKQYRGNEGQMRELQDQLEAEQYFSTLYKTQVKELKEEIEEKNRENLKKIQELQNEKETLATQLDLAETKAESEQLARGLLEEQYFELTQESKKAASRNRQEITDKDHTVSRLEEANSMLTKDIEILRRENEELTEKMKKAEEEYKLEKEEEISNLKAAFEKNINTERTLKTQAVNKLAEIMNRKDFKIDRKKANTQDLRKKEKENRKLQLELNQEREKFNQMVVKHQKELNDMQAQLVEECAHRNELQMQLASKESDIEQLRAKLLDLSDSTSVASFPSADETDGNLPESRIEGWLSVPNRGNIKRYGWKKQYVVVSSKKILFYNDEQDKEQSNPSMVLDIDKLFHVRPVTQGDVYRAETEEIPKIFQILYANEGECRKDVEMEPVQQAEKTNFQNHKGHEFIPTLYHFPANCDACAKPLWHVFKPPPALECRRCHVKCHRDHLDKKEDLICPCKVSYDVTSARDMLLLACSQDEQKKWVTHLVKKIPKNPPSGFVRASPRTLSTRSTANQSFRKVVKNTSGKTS

For orientation: pKi means the Ki on a negative log10 scale, so that one unit is a factor of ten. For the molecule `Clc1cnc2[nH]ccc2c1NC1CCCC1` [compound 127, 5-chloro-N-cyclopentyl-1H-pyrrolo[2,3-b]pyridin-4-amine], the negative logarithm of the Ki (pKi) in experiment [1] (enzyme inhibition, Table 5) was > 6.30; in experiment [2] (setting [4]) it was > 6.30; in experiment [3] (enzyme inhibition, Table 5), > 6.30.

Regarding `CC1CCCN(c2cccc(-c3ccnc4[nH]ccc34)n2)C1` (stereo not drawn) [compound 25, 4-(6-(3-Methylpiperidin-1-yl)pyridin-2-yl)-1H-pyrrolo[2,3-b]pyridine], the pKi in experiment [1] (enzyme inhibition, Table 5) was 5.30 to 6.30; in experiment [2] (setting [4]), > 6.30; in experiment [3] (enzyme inhibition, Table 5) it was > 6.30.

For the molecule `c1cc(CN2CCOCC2)cc(-c2ccnc3[nH]ccc23)c1` [compound 88, 4-(3-Morpholin-4-ylmethyl-phenyl)-1H-pyrrolo[2,3-b]pyridine], the pKi in experiment [1] (enzyme inhibition, Table 5) was 5.30 to 6.30; in experiment [2] (setting [4]), 5.30 to 6.30; in experiment [3] (enzyme inhibition, Table 5), 5.30 to 6.30.

`CC1CCCCC1Nc1c(Cl)cnc2[nH]ccc12` (stereo not drawn) [compound 153]: the pKi in experiment [1] (setting [5]) was > 6.30; in experiment [2] (setting [5]), 5.30 to 6.30; in experiment [3] (setting [5]), > 6.30.

On to `Clc1ccc(-c2ccnc3[nH]ccc23)cc1Cl` [compound 41, 4-(3,4-Dichloro-phenyl)-1H-pyrrolo[2,3-b]pyridine], for which the pKi was 5.30 to 6.30 in experiment [1] (enzyme inhibition, Table 5); > 6.30 in experiment [2] (setting [4]); > 6.30 in experiment [3] (enzyme inhibition, Table 5).

Regarding `Nc1ccccc1-c1ccnc2[nH]ccc12` [compound 119], the pKi in experiment [1] (enzyme inhibition, Table 5) was < 5.30; in experiment [2] (setting [4]) it was 5.30 to 6.30; in experiment [3] (enzyme inhibition, Table 5), < 5.30.

For the molecule `CCN(C)C(=O)c1cc(-c2ccnc3[nH]ccc23)c[nH]1` [compound 261], the pKi in experiment [1] (setting [5]), in experiment [2] (setting [5]) and in experiment [3] (setting [5]) was > 6.30 throughout.

As for `CC(=O)N1[C@H](C)CN(c2cccc(-c3ccnc4[nH]ccc34)n2)C[C@@H]1C` [compound 22], the pKi is > 6.30 in experiment [1] (enzyme inhibition, Table 5); 5.30 to 6.30 in experiment [2] (setting [4]); > 6.30 in experiment [3] (enzyme inhibition, Table 5).

Regarding `CC(C)CNc1cccc(-c2ccnc3[nH]ccc23)n1` [compound 20], the pKi is 5.30 to 6.30 in experiment [1] (enzyme inhibition, Table 5); 5.30 to 6.30 in experiment [2] (setting [4]); 5.30 to 6.30 in experiment [3] (enzyme inhibition, Table 5).

Regarding `O=C(Cn1ccc2cnc(-c3ccnc4[nH]ccc34)nc21)NCC(F)(F)F` [compound 424], the pKi in experiment [1] (setting [5]) was > 6.30; in experiment [2] (setting [5]) it was < 5.40; in experiment [3] (setting [5]), > 6.30.

For the molecule `CCCN(CCC)C(=O)c1ccc(-c2ccnc3[nH]ccc23)s1` [compound 325], the pKi in experiment [1] (setting [5]), in experiment [2] (setting [5]) and in experiment [3] (setting [5]) was > 6.30 each time.

With `CC(=O)N1CCCN(c2cccc(-c3ccnc4[nH]ccc34)n2)CC1` [compound 18], the pKi in experiment [1] (enzyme inhibition, Table 5) was 5.30 to 6.30; in experiment [2] (setting [4]), 5.30 to 6.30; in experiment [3] (enzyme inhibition, Table 5), > 6.30.

In the case of `CCCCN(CCC#N)C(=O)c1cc(-c2ccnc3[nH]ccc23)c[nH]1` [compound 303], the pKi in experiment [1] (setting [5]), in experiment [2] (setting [5]) and in experiment [3] (setting [5]) was > 6.30 throughout.

In the case of `Nc1cccc(-c2ccnc3[nH]ccc23)c1` [compound 114, 3-(1H-Pyrrolo[2,3-b]pyridin-4-yl)-phenylamine], the pKi is 5.30 to 6.30 in experiment [1] (enzyme inhibition, Table 5); > 6.30 in experiment [2] (setting [4]); 5.30 to 6.30 in experiment [3] (enzyme inhibition, Table 5).

For `c1ccc(Oc2ccccc2-c2ccnc3[nH]ccc23)cc1` [compound 240], the pKi is < 5.30 in experiment [1] (setting [5]), < 5.40 in experiment [2] (setting [5]) and < 5.30 in experiment [3] (setting [5]).

Consider `Cc1cccnc1-c1ccnc2[nH]ccc12` [compound 74, 4-(3-methylpyridin-2-yl)-1H-pyrrolo[2,3b]pyridine], for which the pKi in experiment [1] (enzyme inhibition, Table 5) is 5.30 to 6.30; in experiment [2] (setting [4]), 5.30 to 6.30; in experiment [3] (enzyme inhibition, Table 5), < 5.30.

In the case of `N#CCN(Cc1cccc(Cl)c1)C(=O)c1cc(-c2c(F)cnc3[nH]ccc23)c[nH]1` [compound 399], the pKi in experiment [1] (setting [5]), in experiment [2] (setting [5]) and in experiment [3] (setting [5]) was > 6.30 each time.

Turning to `CC(=O)c1ccc(-c2c(Cl)cnc3[nH]ccc23)s1` [compound 145], the pKi in experiment [1] (setting [5]) is > 6.30; in experiment [2] (setting [5]) it was < 5.40; in experiment [3] (setting [5]), > 6.30.

Consider `CN(Cc1cccnc1)c1cccc(-c2ccnc3[nH]ccc23)n1` [compound 56, N-Methyl-N-((pyridin-3-yl)methyl)-6-(1H-pyrrolo[2,3-b]pyridin-4-yl)pyridin-2-amine], for which the pKi in experiment [1] (enzyme inhibition, Table 5) was 5.30 to 6.30; in experiment [2] (setting [4]), 5.30 to 6.30; in experiment [3] (enzyme inhibition, Table 5) it was > 6.30.

As for `COc1ccc(OC)c(Nc2c(Cl)cnc3[nH]ccc23)c1` [compound 154], the pKi was > 6.30 in experiment [1] (setting [5]), < 5.40 in experiment [2] (setting [5]) and > 6.30 in experiment [3] (setting [5]).

Consider `O=C(NCCC(F)(F)F)c1cccc(-c2ccnc3[nH]ccc23)c1` [compound 252], for which the values for the pKi in experiment [1] (setting [5]), in experiment [2] (setting [5]) and in experiment [3] (setting [5]) were > 6.30, 5.30 to 6.30 and 5.30 to 6.30, respectively.

In the case of `O=C(NCC1CC1)c1cc(-c2ccnc3[nH]ccc23)c[nH]1` [compound 286], the pKi in experiment [1] (setting [5]), in experiment [2] (setting [5]) and in experiment [3] (setting [5]) was > 6.30 each time.

Regarding `CC(=O)N1CCN(c2cccc(-c3ccnc4[nH]ccc34)n2)CC1` [compound 26, 1-(4-(6-(1H-pyrrolo[2,3-b]pyridin-4-yl)pyridin-2-yl)piperazin-1-yl)ethanone], the pKi was 5.30 to 6.30 in experiment [1] (enzyme inhibition, Table 5); 5.30 to 6.30 in experiment [2] (setting [4]); 5.30 to 6.30 in experiment [3] (enzyme inhibition, Table 5).

As to `CCC1CCCCN1C(=O)c1csc(-c2ccnc3[nH]ccc23)n1` (stereo not drawn) [compound 423], the negative-log Ki (pKi) in experiment [1] (setting [5]), in experiment [2] (setting [5]) and in experiment [3] (setting [5]) was > 6.30 in each case.

Turning to `O=C(NC1CC1)c1cc(-c2ccnc3[nH]ccc23)c[nH]1` [compound 285], the pKi in experiment [1] (setting [5]), in experiment [2] (setting [5]) and in experiment [3] (setting [5]) was > 6.30 throughout.

For `N#CCCN(Cc1cccnc1)C(=O)c1cc(-c2c(Cl)cnc3[nH]ccc23)c[nH]1` [compound 331], the pKi was > 6.30 in experiment [1] (setting [5]), 5.30 to 6.30 in experiment [2] (setting [5]) and > 6.30 in experiment [3] (setting [5]).

Consider `CC1CC[C@@H](C)N1C(=O)c1csc(-c2ccnc3[nH]ccc23)n1` (stereo partly drawn) [compound 414], for which the pKi in experiment [1] (setting [5]), in experiment [2] (setting [5]) and in experiment [3] (setting [5]) was > 6.30 throughout.

For the molecule `O=C(c1cc(-c2ccnc3[nH]ccc23)c[nH]1)N1CCC(CO)CC1` [compound 363], the pKi in experiment [1] (setting [5]) is 5.30 to 6.30; in experiment [2] (setting [5]), 5.30 to 6.30; in experiment [3] (setting [5]), > 6.30.

For `CSc1ccccc1-c1ccnc2[nH]ccc12` [compound 239], the pKi in experiment [1] (setting [5]), in experiment [2] (setting [5]) and in experiment [3] (setting [5]) was 5.30 to 6.30 throughout.

For `CCCN(CC1CC1)C(=O)c1ccc(-c2ccnc3[nH]ccc23)s1` [compound 319], the pKi in experiment [1] (setting [5]), in experiment [2] (setting [5]) and in experiment [3] (setting [5]) was > 6.30 each time.

`N#CCNC(=O)c1cc(-c2ccnc3[nH]ccc23)c[nH]1` [compound 295]: the pKi in experiment [1] (setting [5]), in experiment [2] (setting [5]) and in experiment [3] (setting [5]) was > 6.30 each time.

For `c1cc(CNC2CC2)cc(-c2ccnc3[nH]ccc23)c1` [compound 86, Cyclopropyl-[3-(1H-pyrrolo[2,3-b]pyridin-4-yl)-benzyl]-amine], the pKi is 5.30 to 6.30 in experiment [1] (enzyme inhibition, Table 5); > 6.30 in experiment [2] (setting [4]); 5.30 to 6.30 in experiment [3] (enzyme inhibition, Table 5).

With `CC(C)CC(=O)Nc1nc(-c2ccnc3[nH]ccc23)cs1` [compound 378], the pKi in experiment [1] (setting [5]), in experiment [2] (setting [5]) and in experiment [3] (setting [5]) was > 6.30 in each case.

Consider `Clc1cnc2[nH]ccc2c1-c1cc2ccccc2s1` [compound 137], for which the results for the pKi in experiment [1] (setting [5]), in experiment [2] (setting [5]) and in experiment [3] (setting [5]) were > 6.30, < 5.40 and > 6.30, respectively.

With `COc1ccc(Cl)cc1-c1ccnc2[nH]ccc12` [compound 235], the pKi in experiment [1] (setting [5]), in experiment [2] (setting [5]) and in experiment [3] (setting [5]) was 5.30 to 6.30 in each case.
